Assay results reported in patent publication US4418060A, “Therapeutically active complexes of tetracyclines” (priority 1971, dated 1983).

Tests used:
[1] = cited from earlier work
[2] = Toxicity data (LD50) of tetracyclines and Tri-tetracyclines in mice; conditions: mouse, in vivo, oral
[3] = Chloroform/water distribution quotient; assay type: physicochemical; conditions: pH=7.4
Excerpt: The solution is filled into ampoules in nitrogen atmosphere.

[4] = cited from earlier work; remark: listed apart in the source
[5] = background statement; cited from earlier work
[6] = cited from earlier work; remark: listed apart in the source
[7] = system: tetracycline-resistant Proteus strains; conditions: cited from earlier work
[8] = per os; cited from earlier work

Structure (SMILES): NC(CO)(CO)CO [tris(hydroxymethyl)aminomethane]
- pK [1]: 8.33

Structure (SMILES): CN(C)[C@@H]1C(=O)C(C(N)=O)=C(O)[C@@]2(O)C(=O)C3=C(O)c4c(O)cccc4[C@@](C)(O)[C@H]3[C@H](O)[C@@H]12 [OTC, 5-hydroxytetracycline]
- LD50 [2]: 2500 mg/kg
- chloroform/water distribution quotient K [3]: 0.008

Structure (SMILES): CC(=O)C1=C(O)C2(O)C(=O)c3c(c(C)c4ccc(C)c(O)c4c3O)CC2C(N)C1=O (stereo not drawn) [chelocardin, 2-decarboxamido-2-acetyl-4-dedimethylamino-4-epiamino-9-methyl-5a,6-anhydrotetracyline]
- absorption ([4]; peroral): low absorption value
- water solubility [5]: lower than that of other tetracyclines
- lipid solubility [6]: moderately lipid soluble
- effect against tetracycline-resistant Proteus [7]: effective

Structure (SMILES): C[C@H]1c2cccc(O)c2C(O)=C2C(=O)[C@]3(O)C(O)=C(C(N)=O)C(=O)[C@@H](N(C)C)[C@@H]3[C@@H](O)[C@@H]21 [doxycycline, 6-deoxy-5-hydroxytetracycline]
- excretion ([4]; in vivo): with faeces as well
- gastrointestinal disorders [8]: gastrointestinal disorders can be observed
